Assay results reported in PubChem BioAssay (NCI).
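Following 48 hours of exposure in 96-well plates, responses at five concentrations were used to interpolate endpoints linearly. TGI: concentration producing complete growth inhibition.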

Assays:
Assay in all cases: NCI anticancer screen, dose series, 48 h
SK-MEL-28 melanoma = system: SK-MEL-28 melanoma
MALME-3M melanoma = system: MALME-3M melanoma
SW-620 colon = system: SW-620 colon
DU-145 prostate = system: DU-145 prostate
SF-268 CNS = system: SF-268 CNS
EKVX NSCLC = system: EKVX NSCLC
RXF 393 renal = system: RXF 393 renal
A549 NSCLC = system: A549 NSCLC
HOP-92 NSCLC = system: HOP-92 NSCLC
NCI-H460 lung = system: NCI-H460 lung
BT-549 breast = system: BT-549 breast
HCT-15 colon = system: HCT-15 colon
OVCAR-3 ovarian = system: OVCAR-3 ovarian
IGROV1 ovarian = system: IGROV1 ovarian
UO-31 renal = system: UO-31 renal
U251 CNS = system: U251 CNS
ACHN renal = system: ACHN renal
RPMI-8226 leukemia = system: RPMI-8226 leukemia
A498 renal = system: A498 renal
CCRF-CEM leukemia = system: CCRF-CEM leukemia
SNB-19 CNS = system: SNB-19 CNS
NCI-H226 lung = system: NCI-H226 lung
HL-60(TB) leukemia = system: HL-60(TB) leukemia
SF-295 CNS = system: SF-295 CNS
PC-3 prostate = system: PC-3 prostate
SN12C renal = system: SN12C renal
HCC-2998 colon = system: HCC-2998 colon
CAKI-1 renal = system: CAKI-1 renal
MCF7 breast = system: MCF7 breast
K-562 leukemia = system: K-562 leukemia
SF-539 CNS = system: SF-539 CNS
SNB-75 CNS = system: SNB-75 CNS
OVCAR-4 ovarian = system: OVCAR-4 ovarian
TK-10 renal = system: TK-10 renal
HT29 colon = system: HT29 colon
SR leukemia = system: SR leukemia
HS 578T breast = system: HS 578T breast
OVCAR-5 ovarian = system: OVCAR-5 ovarian
LOX IMVI melanoma = system: LOX IMVI melanoma
UACC-257 melanoma = system: UACC-257 melanoma
NCI-H23 lung = system: NCI-H23 lung
MDA-MB-231 breast = system: MDA-MB-231 breast
MOLT-4 leukemia = system: MOLT-4 leukemia
NCI/ADR-RES ovarian = system: NCI/ADR-RES ovarian
MDA-MB-435 = system: MDA-MB-435
OVCAR-8 ovarian = system: OVCAR-8 ovarian
HOP-62 NSCLC = system: HOP-62 NSCLC
SK-MEL-5 melanoma = system: SK-MEL-5 melanoma
786-0 renal = system: 786-0 renal
COLO 205 colon = system: COLO 205 colon
NCI-H522 lung = system: NCI-H522 lung
KM12 colon = system: KM12 colon
HCT-116 colon = system: HCT-116 colon
T-47D breast = system: T-47D breast
SK-MEL-2 melanoma = system: SK-MEL-2 melanoma
UACC-62 melanoma = system: UACC-62 melanoma
SK-OV-3 ovarian = system: SK-OV-3 ovarian
M14 melanoma = system: M14 melanoma

COC1(OC)CC(CO)(CNc2nc(N)nc(Cl)c2C=O)C1
TGI (SK-MEL-28 melanoma): > 100 µM | TGI (MALME-3M melanoma): > 100 µM | TGI (SW-620 colon): > 100 µM | TGI (DU-145 prostate): > 100 µM | TGI (SF-268 CNS): > 100 µM | TGI (EKVX NSCLC): 52.2 µM | TGI (RXF 393 renal): > 100 µM | TGI (A549 NSCLC): > 100 µM | TGI (HOP-92 NSCLC): 36.2 µM | TGI (NCI-H460 lung): > 100 µM | TGI (BT-549 breast): > 100 µM | TGI (HCT-15 colon): > 100 µM | TGI (OVCAR-3 ovarian): > 100 µM | TGI (IGROV1 ovarian): 48.3 µM | TGI (UO-31 renal): > 100 µM | TGI (U251 CNS): > 100 µM | TGI (ACHN renal): 13 µM | TGI (RPMI-8226 leukemia): > 100 µM | TGI (A498 renal): > 100 µM | TGI (CCRF-CEM leukemia): > 100 µM | TGI (SNB-19 CNS): > 100 µM | TGI (NCI-H226 lung): > 100 µM | TGI (HL-60(TB) leukemia): 35.8 µM | TGI (SF-295 CNS): > 100 µM | TGI (PC-3 prostate): 77.4 µM | TGI (SN12C renal): > 100 µM | TGI (HCC-2998 colon): 84.5 µM | TGI (CAKI-1 renal): > 100 µM | TGI (MCF7 breast): > 100 µM | TGI (K-562 leukemia): 32.1 µM | TGI (SF-539 CNS): > 100 µM | TGI (SNB-75 CNS): > 100 µM | TGI (OVCAR-4 ovarian): 90.4 µM | TGI (TK-10 renal): > 100 µM | TGI (HT29 colon): > 100 µM | TGI (SR leukemia): 79.5 µM | TGI (HS 578T breast): > 100 µM | TGI (OVCAR-5 ovarian): > 100 µM | TGI (LOX IMVI melanoma): 35.2 µM | TGI (UACC-257 melanoma): 71.6 µM | TGI (NCI-H23 lung): 48.5 µM | TGI (MDA-MB-231 breast): 43.9 µM | TGI (MOLT-4 leukemia): 60.1 µM | TGI (NCI/ADR-RES ovarian): 88.1 µM | TGI (MDA-MB-435): 85.9 µM | TGI (OVCAR-8 ovarian): > 100 µM | TGI (HOP-62 NSCLC): > 100 µM | TGI (SK-MEL-5 melanoma): > 100 µM | TGI (786-0 renal): > 100 µM | TGI (COLO 205 colon): > 100 µM | TGI (NCI-H522 lung): 3.96 µM | TGI (KM12 colon): > 100 µM | TGI (HCT-116 colon): > 100 µM

CSC(=NC#N)S/C=C/C(=O)c1ccc(Cl)cc1
TGI (SK-MEL-28 melanoma): 46.5 µM | TGI (MALME-3M melanoma): 55.5 µM | TGI (SW-620 colon): 40.6 µM | TGI (DU-145 prostate): > 100 µM | TGI (SF-268 CNS): 62.2 µM | TGI (EKVX NSCLC): > 100 µM | TGI (RXF 393 renal): 42.4 µM | TGI (A549 NSCLC): > 100 µM | TGI (HOP-92 NSCLC): > 100 µM | TGI (NCI-H460 lung): > 100 µM | TGI (HCT-15 colon): > 100 µM | TGI (OVCAR-3 ovarian): 34.7 µM | TGI (IGROV1 ovarian): 44.2 µM | TGI (UO-31 renal): 45.4 µM | TGI (U251 CNS): > 100 µM | TGI (ACHN renal): > 100 µM | TGI (CCRF-CEM leukemia): > 100 µM | TGI (T-47D breast): 75.1 µM | TGI (SNB-19 CNS): > 100 µM | TGI (HL-60(TB) leukemia): > 100 µM | TGI (SF-295 CNS): 95.5 µM | TGI (PC-3 prostate): > 100 µM | TGI (SN12C renal): 84.7 µM | TGI (HCC-2998 colon): > 100 µM | TGI (CAKI-1 renal): 35.6 µM | TGI (MCF7 breast): 79.3 µM | TGI (SK-MEL-2 melanoma): 45 µM | TGI (K-562 leukemia): > 100 µM | TGI (SF-539 CNS): 52.3 µM | TGI (SNB-75 CNS): > 100 µM | TGI (UACC-62 melanoma): 74.4 µM | TGI (OVCAR-4 ovarian): > 100 µM | TGI (TK-10 renal): 58.5 µM | TGI (HT29 colon): 46.4 µM | TGI (SR leukemia): 12.6 µM | TGI (HS 578T breast): 75.9 µM | TGI (OVCAR-5 ovarian): 99.8 µM | TGI (UACC-257 melanoma): 52.2 µM | TGI (NCI-H23 lung): 52.4 µM | TGI (MOLT-4 leukemia): > 100 µM | TGI (NCI/ADR-RES ovarian): 63.1 µM | TGI (MDA-MB-435): 64.3 µM | TGI (OVCAR-8 ovarian): 47.4 µM | TGI (HOP-62 NSCLC): > 100 µM | TGI (SK-MEL-5 melanoma): 32.7 µM | TGI (786-0 renal): 40.8 µM | TGI (COLO 205 colon): 71.6 µM | TGI (SK-OV-3 ovarian): > 100 µM | TGI (NCI-H522 lung): 38.5 µM | TGI (KM12 colon): > 100 µM | TGI (HCT-116 colon): 34.5 µM | TGI (M14 melanoma): 45.1 µM
